The source of these data is paper PMC9266004, “Potential Common Mechanisms of Cytotoxicity Induced by Amide Herbicides via TRPA1 Channel Activation” (International Journal of Environmental Research and Public …, 2022).

The test system of series [1] is TRPA1-KO A549 cells. Put plainly: CCK-8 cell viability assay in TRPA1-KO A549 cells. The following applies: for IC50: Homo sapiens, TRPA1-KO A549 cells, 24 h treatment, CCK-8, read-out: IC50 values of AHs, TRPA1-KO A549 Cells; for viability of TRPA1-KO A549 cells compared with AHs-treated WT cells: KO of TRPA1, AHs 150, 300, 600 μM. The class given is cell-based, human. The protocol:
The hTRPA1 gene sequence (Gene ID: 8989) was obtained from the National Center for Biotechnology Information (NCBI) website (https://www.ncbi.nlm.nih.gov/gene/8989 accessed on 26 May 2022). Three gRNA sequences, namely, T1: 5′-[…]-[…], T16: 5′-[…]-3′, and T20: 5′-[…]-3′, were designed using the CRISPR online design tool (http://crispr.mit.edu/ accessed on 26 May 2022). Transfection of cells with gRNA-Cas9 was validated in test cells. Cell pool examination was performed using Sanger sequencing. Sequencing and tracer analysis were performed using the online tool TIDE (https://tide-calculator.nki.nl/ accessed on 26 May 2022) to investigate the cleavage efficiency of T1, T16, and T20. Cells from the cell pool were diluted in 96-well plates. Clones were observed under a microscope and wells containing single cell clones were labeled. Single cell clones were transferred to 24-well plates for expansion. Validation of knockout (KO) clones was performed via sequencing to confirm insertion and deletion on the genomes of KO clone candidates. Furthermore, mycoplasmas were detected for cloned cells with high KO using the Mycoplasma PCR Detection Kit.
(§1) Wild-type (WT) and TRPA1-KO A549 cells were cultured in McCoy’s 5A Media and F-12K Nutrient Mixture containing 10% fetal bovine serum, respectively. WT/TRPA1-KO A549 cells (5 × 10^4 cells/mL) were seeded in 96-well (100 μL/well) and 6-well (2 mL/well) plates and incubated at 37 °C with 5% CO2 in a humidified incubator for 24 h. WT/TRPA1-KO A549 cells were treated with AHs gradient concentrations (0, 150, 300, 600, 1200 μM) prepared in methanol (1.2 M) for 24 h. Additionally, WT/TRPA1-KO A549 cells were pre-treated with TRPA1 special inhibitor HC-030031 (100 μM) for 0.5 h and then treated with AHs gradient concentrations for 24 h.
To conduct the cell viability assay, the growth medium was removed from WT/TRPA1-KO A549 cells cultured in a 96-well plate. CCK-8 reagent was mixed with complete medium (1:9 volume ratio), and 100 µL of the CCK-8 reagent mixture was added to each well. The plate was incubated for 4 h and the absorbance was measured at 450 nm using a microplate reader (BNR05740; Molecular Devices, Sunnyvale, CA, USA). The average absorbance from each sextuplicate set of wells was calculated and the background control value was subtracted from each absorbance value. The percentage cell viability was determined using the following equation:cell viability (%) = [(As − Ab)/(Ac − Ab)] × 100% where As is the absorbance of the experimental well (containing medium, CCK-8 reagent, cells, and compound); Ac is the absorbance of the control well (containing medium, CCK-8 reagent, and cells); and Ab is the absorbance of the blank well (containing medium and CCK-8 reagent).
On the technique in general: Tetrazolium dyes change colour on reduction, which living cells bring about.

The test system of series [2] is A549 cells. Put plainly: LDH cytotoxicity assay. The following applies: 150, 300, 600, 1200 μM, 24 h. The class given is cell-based, human. The protocol: as §1
Using the Cytotoxicity LDH Assay Kit, lysis buffer (10 μL) was added to the high control well of a 96-well plate containing WT/TRPA1-KO A549 cells, which was then incubated for 0.5 h. Working solution was prepared by adding 5 mL assay buffer to the dye mixture vial, of which 100 μL was added to each well. The plate was protected from light and incubated at room temperature for 0.5 h. Subsequently, 50 μL stop solution was added to each well and the absorbance was measured immediately at 490 nm using a microplate reader (BNR05740, Molecular Devices). The average absorbance was calculated from each sextuplicate set of wells and the background control value was subtracted from each absorbance value. The percentage cytotoxicity was determined using the following equation:cytotoxicity (%) = [(Aa − Ab1)/(Ab2 − Ab1)] × 100% where Aa is the absorbance of the experimental well (containing medium, cells, and compound); Ab2 is the absorbance of the high control well (containing medium, cells, and lysis buffer); and Ab1 is the absorbance of the low control well (containing medium and cells).

The subject of series [3] is zebrafish embryos. The following applies: cited from earlier work.

Turning to `CCc1cccc(C)c1N(C(=O)CCl)C(C)COC` (stereo not shown) [Metolachlor, metolachlor], in series [1], the 50% inhibitory concentration (IC50) was found to be 562 µM and the “viability of TRPA1-KO A549 cells compared with AHs-treated WT cells” value (“viability … compared with AHs-treated WT cells” for short) was “significantly increased the viability”. In addition, in series [2], the “cell damage (LDH) compared with 0 μM AHs” value is reported as “significantly increased cell damage”.

Take `CCC(=O)Nc1ccc(Cl)c(Cl)c1` [Propanil, propanil]: in series [1], the IC50 came out at 2560 µM and the “viability … compared with AHs-treated WT cells” value was “significantly increased the viability”. Also, the “cell damage (LDH) compared with 0 μM AHs” value in series [2] was “significantly increased cell damage”.

As to `CCCOCCN(C(=O)CCl)c1c(CC)cccc1CC` [Pretilachlor, pretilachlor], in series [1], the IC50 is 3670 µM and the “viability … compared with AHs-treated WT cells” value is given as “significantly increased the viability”. For the same compound, the “cell damage (LDH) compared with 0 μM AHs” value in series [2] is given as “significantly increased cell damage”. In addition, the toxic effects entry in series [3] was “endocrine disorder, cell apoptosis, and immunotoxicity”.

A word on the IC50: it is the point on the concentration scale where inhibition reaches its midpoint.
